Experimental data published in patent US20240024273A1, “TOPICAL ADMINISTRATION OF 2-(DIETHYLAMINO)ETHYL 2-(4-ISOBUTYLPHENYL)PROPRIONATE FOR TREATMENT OF DISEASES” (TECHFIELDS PHARMA CO., LTD., priority 2020, published 2024).

Tested on: Subjects with Osteoarthritis of the Knee
Assay: Second Phase 2 study: safety (treatment-emergent adverse events)
Assay type: in vivo, human
Conditions: Oral Ibuprofen 3 × 400 mg, N = 71
Description: Safety assessments will be performed at each visit and will include assessment of AEs, vital signs (blood pressure, pulse rate, and oral temperature), clinical laboratories, physical examination, skin irritation, and electrocardiograms (ECGs) as indicated in the study flow chart, Table 47.
Safety assessments will include AEs, vital signs (blood pressures, pulse rate, and oral temperature), clinical laboratories, physical examination, skin irritation, and ECGs at various time points during the study as indicated in the study flow chart.
Adverse events of interest include: local skin reactions around the treated knee(s), upper stomach pain, GI bleeding, serious cardiovascular side effects (e.g., thrombotic events, myocardial infarction, or stroke), jaundice, elevated liver function tests, and nausea.
Safety analyses will be conducted on the SAS. Safety parameters will be listed and summarized using standard descriptive statistics, as appropriate. No formal statistical analyses are planned.

## CC(C)Cc1ccc(C(C)C(=O)O)cc1 (stereo not shown) [Ibuprofen, 2-(4-isobutylphenyl)propionic acid, reference compound]
  Infections and Infestations: number of adverse events: 32
  Metabolism and Nutrition Disorders: number of adverse events: 8
  Metabolism and Nutrition Disorders: percentage of subjects with adverse events: 11.3%
  Metabolism and Nutrition Disorders: subjects with adverse events: 8
  Tooth Infection: number of adverse events: 3
  Urinary Tract Infection: number of adverse events: 11
  Urinary Tract Infection: subjects with adverse events, number (percentage): 10(14.1%)
